{"source": "patent US6034101A", "about": "“Dosage form and method for administering drug” (ALZA Corporation, priority 1997, dated 2000)", "key": {"[1]": {"system": "children with attention deficient hyperactivity disorder", "test": "Clinical study of Example 2: behavior and combined attention, acquired tolerance in children with attention deficient hyperactivity disorder", "format": "in vivo, human", "settings": "total 36 mg", "experimental": "(§1) The CLAM Test is a behavior rating that indicates social conformity or rebellion as developed by Conners, Lonez, and Milch and SKAMP is a rating that also measures behavior as developed by Swanson and reported in Psychopharmacological Bulletin, Vol. 21, pp. 887-890 (1985).\n(§2) The effect measurements in this study were: (1) observer ratings on SKAMP scale (during classroom time) and (2) performance on the computerized mathematics test. Each child was tested on the mathematics test before the study began, and based on this pre-test during the study, a mathematics test appropriate for each child's ability was given. The morning and evening parent CLAM assessments were used to identify unusual behaviors. The evening parent CLAM was used to determine the presence of treatment effects in the evening hours, particularly treatment effects on the time the child fell asleep, and whether the child's sleep was interrupted. All of the children also wore an activity monitor (Actigraph) which records the movements of the child throughout the day. The activity (number of movements per minute) is recorded electronically and modeled as a function of the drug effect.\nThe results of a clinical study that comprises administering methylphenidate according to two distinct delivery programs are reported in this example. […]"}, "patients [2]": {"system": "patients", "settings": "cited from earlier work"}, "patients [3]": {"system": "patients", "test": "Therapeutic response and acquired tolerance in patients (general statements)", "format": "in vivo, human", "settings": "sustained-release dosage form with constant plasma concentration; applicant's finding"}, "school children": {"system": "school children", "test": "Clinical study of Example 1: behavior, activity, mathematics scores and acute tolerance in school children (SKAMP, CLAM)", "format": "in vivo, human", "experimental": "as §1, §2\nThe immediate release tablet and the sustained-release dosage form were compared to a sustained-release dosage form that administered methylphenidate in an ascending profile. The sustained-release ascending profile corresponds to administering 4.2 mg at zero hour, 1.1 mg at 1.5 hours, 1.1 mg at 2 hours, 1.2 mg at 2.5 hours, 1.2 mg at 3.0 hours, 1.3 mg at 3.5 hours, 1.3 mg at 4 hours, 1.5 mg at 4.5 hours, 1.5 mg at 5 hours, 1.8 mg at 5.5 hours, 1.8 mg at 6 hours, and 2.0 mg at 6.5 hours, to produce the sustained-ascending release dotted line profile seen in FIG. 2.\nThe accompanying figures present the results of the above-described study. In FIGS. 3, 4, and 5, the line with a clear circle denotes a placebo, the dark circle an immediate release dosage form administered twice a day, the dark squares a sustained release nonascending dosage profile, and the clear squares the sustained ascending release profile provided by this invention. The SKAMP Score and CLAM Score were defined earlier in the specification, and the times are as indicated on the figures. FIG. 3 denotes the observed behavior, FIG. 4 denotes the inattention overactivity, and FIG. 5 denotes the combined attention results of the study."}, "[4]": {"settings": "immediate release form; cited from earlier work"}, "[5]": {"settings": "sustained-nonascending dose, 20 mg, vs placebo"}}}
{"smiles": "COC(=O)C(c1ccccc1)C1CCCCN1", "note": "(stereo not shown) [methylphenidate]", "values": [{"measurement": "behavior, acquired tolerance", "setting": "[1]; sustained-ascending program, FIG. 7", "value": "absence of acquired tolerance"}, {"measurement": "combined attention, acquired tolerance", "setting": "[1]; sustained-ascending release, FIG. 8", "value": "essentially free of developed tolerance"}, {"measurement": "tolerance", "setting": "patients [2]; 5 mg dose twice a day", "value": "acquires tolerance"}, {"measurement": "time to development of tolerance", "setting": "patients [2]; after administration", "value": "within hours"}, {"measurement": "acute tolerance", "setting": "patients [2]; prior art sustained-release nonascending dosage form", "value": "often develops an acute tolerance"}, {"measurement": "efficacy against acquired tolerance", "setting": "patients [3]", "value": "lacks efficacy particularly against acquired tolerance"}, {"measurement": "therapeutic effect / tolerance", "setting": "school children; controlled-sustained ascending profile", "value": "desired therapeutic effect without tolerance"}, {"measurement": "acute tolerance", "setting": "school children; sustained-nonascending dose, 20 mg", "value": "development of acute tolerance"}, {"measurement": "activity", "setting": "school children; [5]", "value": "decrease in activity"}, {"measurement": "inappropriate behavior", "setting": "school children; [5]", "value": "lessening of inappropriate behavior"}, {"measurement": "mathematical scores", "setting": "school children; [5]", "value": "higher mathematical scores"}, {"measurement": "half-life", "setting": "[4]", "value": "short half-life"}, {"measurement": "onset", "setting": "[4]", "value": "rapid onset"}]}
